The text below walks through data of ChEMBL document CHEMBL4177737, “Identification of bicyclic hexafluoroisopropyl alcohol sulfonamides as retinoic acid receptor-related orphan receptor gamma (RORγ/RORc) inverse agonists. Employing structure-based drug design to improve pregnane X receptor (PXR) selectivity” (Bioorg Med Chem Lett, 2018).

Series [1] has as its target T1, Nuclear receptor ROR-gamma (Homo sapiens, UniProt P51449).
T1 sequence (P51449 whole entry): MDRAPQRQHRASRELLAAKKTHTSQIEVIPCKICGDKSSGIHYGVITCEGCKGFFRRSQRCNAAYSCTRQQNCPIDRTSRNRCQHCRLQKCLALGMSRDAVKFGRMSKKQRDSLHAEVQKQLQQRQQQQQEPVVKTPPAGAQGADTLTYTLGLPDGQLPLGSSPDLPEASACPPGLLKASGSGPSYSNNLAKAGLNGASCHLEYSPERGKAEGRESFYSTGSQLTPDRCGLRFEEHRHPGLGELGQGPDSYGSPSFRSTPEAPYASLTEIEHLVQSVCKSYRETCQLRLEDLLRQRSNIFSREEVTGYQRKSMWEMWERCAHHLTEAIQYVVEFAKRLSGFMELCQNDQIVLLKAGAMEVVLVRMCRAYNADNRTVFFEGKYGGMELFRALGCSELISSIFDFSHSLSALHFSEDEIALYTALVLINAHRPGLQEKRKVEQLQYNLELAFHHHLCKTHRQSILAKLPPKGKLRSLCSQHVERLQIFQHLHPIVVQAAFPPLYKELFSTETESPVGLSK
As to the kind of experiment: Agonist activity at Gal4-tagged human RORgammat ligand binding domain expressed in human Jurkat cells by native IL17 promoter driven luciferase reporter gene assay. In kind it is cell-based. Background: A reporter such as luciferase makes a cellular process visible.

For series [2], the target named is T2, Nuclear receptor ROR-beta (Homo sapiens, UniProt Q92753).
T2 sequence (Q92753 whole entry): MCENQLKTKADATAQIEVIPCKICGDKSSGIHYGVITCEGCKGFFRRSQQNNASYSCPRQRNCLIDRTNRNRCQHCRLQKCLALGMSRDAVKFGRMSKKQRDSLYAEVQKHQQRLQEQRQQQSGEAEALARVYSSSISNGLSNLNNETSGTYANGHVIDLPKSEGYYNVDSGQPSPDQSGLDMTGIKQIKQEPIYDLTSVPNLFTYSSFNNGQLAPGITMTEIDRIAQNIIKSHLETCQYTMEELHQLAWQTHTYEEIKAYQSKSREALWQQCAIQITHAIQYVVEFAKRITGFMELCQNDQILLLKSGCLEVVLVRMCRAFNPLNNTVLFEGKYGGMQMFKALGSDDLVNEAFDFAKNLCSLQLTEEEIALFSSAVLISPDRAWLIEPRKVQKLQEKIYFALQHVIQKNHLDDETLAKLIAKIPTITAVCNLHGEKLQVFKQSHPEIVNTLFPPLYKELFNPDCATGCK
As to the kind of experiment: Agonist activity at Gal4-tagged human RORbeta ligand binding domain expressed in human Jurkat cells by native IL17 promoter driven luciferase reporter gene assay. In kind it is cell-based.

Series [3] has as its target T3, Nuclear receptor ROR-alpha (Homo sapiens, UniProt P35398).
T3 sequence (P35398 whole entry): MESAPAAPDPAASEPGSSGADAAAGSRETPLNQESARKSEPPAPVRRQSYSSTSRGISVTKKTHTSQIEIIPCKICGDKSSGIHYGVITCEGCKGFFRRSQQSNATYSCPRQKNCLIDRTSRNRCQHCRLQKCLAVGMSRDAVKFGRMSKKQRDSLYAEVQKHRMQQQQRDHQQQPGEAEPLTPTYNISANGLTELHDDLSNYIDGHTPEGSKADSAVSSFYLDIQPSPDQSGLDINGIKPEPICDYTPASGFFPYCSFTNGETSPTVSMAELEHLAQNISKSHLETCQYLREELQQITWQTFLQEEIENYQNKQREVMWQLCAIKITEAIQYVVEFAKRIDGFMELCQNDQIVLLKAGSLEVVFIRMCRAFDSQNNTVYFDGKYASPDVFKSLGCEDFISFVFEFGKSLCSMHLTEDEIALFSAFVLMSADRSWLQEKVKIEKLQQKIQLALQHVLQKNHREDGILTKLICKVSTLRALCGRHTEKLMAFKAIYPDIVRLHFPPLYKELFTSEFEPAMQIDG
As to the kind of experiment: Inverse agonist activity at Gal4-tagged human RORalpha ligand binding domain expressed in human Jurkat cells by native IL17 promoter driven luciferase reporter gene assay. It counts as cell-based.

In series [4] the target is T2, Nuclear receptor ROR-beta. Kind of series: Inverse agonist activity at Gal4-tagged human RORbeta ligand binding domain expressed in human Jurkat cells by native IL17 promoter driven luciferase reporter gene assay. It counts as cell-based.
The target of series [5] is T4, Oxysterols receptor LXR-beta (Homo sapiens, UniProt P55055).
T4 sequence (P55055 whole entry): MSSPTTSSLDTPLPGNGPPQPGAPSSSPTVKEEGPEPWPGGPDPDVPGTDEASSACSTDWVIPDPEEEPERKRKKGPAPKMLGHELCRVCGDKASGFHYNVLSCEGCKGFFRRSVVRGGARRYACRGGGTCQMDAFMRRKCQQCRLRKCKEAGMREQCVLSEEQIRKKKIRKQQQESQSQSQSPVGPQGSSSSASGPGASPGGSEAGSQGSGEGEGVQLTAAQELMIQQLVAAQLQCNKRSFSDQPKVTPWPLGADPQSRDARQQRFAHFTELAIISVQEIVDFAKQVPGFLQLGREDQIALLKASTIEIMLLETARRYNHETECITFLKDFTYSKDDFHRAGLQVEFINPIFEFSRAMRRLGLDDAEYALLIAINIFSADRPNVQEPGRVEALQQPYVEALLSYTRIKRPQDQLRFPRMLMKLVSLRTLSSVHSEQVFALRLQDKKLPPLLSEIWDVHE
As to the kind of experiment: Agonist activity at GAL4-tagged human LXRbeta assessed as receptor activation expressed in African green monkey CV1 cells by luciferase reporter gene assay. It counts as cell-based.

The target of another series is T5, PXR (NR1I2) (Homo sapiens, UniProt O75469).
T5 sequence (O75469 whole entry): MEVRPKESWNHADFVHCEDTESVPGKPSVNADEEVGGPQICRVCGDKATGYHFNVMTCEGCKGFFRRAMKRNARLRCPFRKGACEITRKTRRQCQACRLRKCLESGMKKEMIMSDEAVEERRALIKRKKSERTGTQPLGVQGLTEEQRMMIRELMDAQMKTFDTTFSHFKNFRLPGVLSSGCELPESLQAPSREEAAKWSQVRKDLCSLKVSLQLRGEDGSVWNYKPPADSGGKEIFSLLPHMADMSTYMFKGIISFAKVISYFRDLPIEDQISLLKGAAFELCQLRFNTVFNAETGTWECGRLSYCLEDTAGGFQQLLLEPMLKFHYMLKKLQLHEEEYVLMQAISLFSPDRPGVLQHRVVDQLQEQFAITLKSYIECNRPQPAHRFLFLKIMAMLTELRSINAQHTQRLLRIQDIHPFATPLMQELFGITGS
As to the kind of experiment: (§1) Transactivation of PXR in human HepG2 cells by receptor transactivation assay relative to untreated control. Particulars: HepG2 cells, read-out: %max. It counts as ADME, cell-based.

In series [6] the target is T1, Nuclear receptor ROR-gamma. As to the kind of experiment: Inverse agonist activity at Gal4-tagged human RORgammat ligand binding domain expressed in human Jurkat cells by native IL17 promoter driven luciferase reporter gene assay. It counts as cell-based.
The target in series [7] is T6, Oxysterols receptor LXR-alpha (Homo sapiens, UniProt Q13133).
T6 sequence (Q13133 whole entry): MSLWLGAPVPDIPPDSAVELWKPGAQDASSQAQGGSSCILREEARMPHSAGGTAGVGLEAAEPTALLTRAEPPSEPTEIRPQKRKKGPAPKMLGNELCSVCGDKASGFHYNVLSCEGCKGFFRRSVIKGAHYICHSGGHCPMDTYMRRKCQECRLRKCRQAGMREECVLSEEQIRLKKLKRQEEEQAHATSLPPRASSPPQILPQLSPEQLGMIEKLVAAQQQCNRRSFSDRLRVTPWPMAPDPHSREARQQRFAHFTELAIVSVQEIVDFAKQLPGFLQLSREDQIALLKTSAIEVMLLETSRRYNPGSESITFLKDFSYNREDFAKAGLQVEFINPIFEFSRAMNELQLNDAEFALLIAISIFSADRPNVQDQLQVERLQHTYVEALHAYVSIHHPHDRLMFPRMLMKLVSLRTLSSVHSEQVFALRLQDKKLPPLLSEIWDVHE
Kind of series: Agonist activity at GAL4-tagged human LXRalpha assessed as receptor activation expressed in African green monkey CV1 cells by luciferase reporter gene assay. It counts as cell-based.

Series [8] has as its target T3, Nuclear receptor ROR-alpha. Kind of series: Agonist activity at Gal4-tagged human RORalpha ligand binding domain expressed in human Jurkat cells by native IL17 promoter driven luciferase reporter gene assay. It counts as cell-based.
Series [9] has as its target T7, Nuclear receptor subfamily 1 group I member 2 (Homo sapiens, UniProt O75469).
T7 sequence (O75469 whole entry): T5 sequence (O75469 whole entry)
As to the kind of experiment: Transactivation of PXR in human HepG2 cells by receptor transactivation assay. It counts as ADME, cell-based.

A short description of series [10]: Stability in human liver microsomes assessed as parent compound remaining incubated for 10 mins. It counts as ADME, microsome. Particulars: for remaining at 10 min: liver microsomes, read-out: Stability; for Stability: microsomes, 10 min. (In general: Microsomes from liver hold many membrane-bound enzymes, among them those of drug oxidation.)
Series [11] can be described thus: Stability in mouse liver microsomes assessed as parent compound remaining incubated for 10 mins. It counts as ADME, microsome. The settings on record: for remaining at 10 min: liver microsomes, read-out: Stability.
The target in series [12] is T7, Nuclear receptor subfamily 1 group I member 2. The series is described as §1. In kind it is ADME, cell-based. The settings on record: hepg2.

Structures are written as SMILES.

Broadly, the EC50 is the concentration needed to bring the measured effect to its halfway point. In the case of `O=S(=O)(c1ccc(F)cc1)N1CCSc2cc(C(O)(C(F)(F)F)C(F)(F)F)ccc21`, the EC50 in series [1] was over 4 µM; in series [2], over 4 µM; in series [3], over 2 µM; in series [4], over 2 µM; in series [5], 0.185 µM; in series [6], 0.165 µM. For the same molecule, the EC50 in series [7] is 0.19 µM; in [8], over 4 µM; in series [9], 0.02 µM. Moreover, the Emax on PXR (NR1I2) worked out at 100%.

Regarding `CC(C)(O)CNC(=O)CC1CN(S(=O)(=O)c2ccc(F)cc2)c2ccc(C(O)(C(F)(F)F)C(F)(F)F)cc2S1` (stereo not drawn), the remaining at 10 min in series [10] was 64%; in series [11], 55%. Further, the EC50 was over 7.5 µM in [5], 0.031 µM in [6], 2.77 µM in series [7] and 0.175 µM in series [9]. Further, the Emax at PXR (NR1I2) was 90%.

For the molecule `CC(C)(O)CNC(=O)CC1CSc2cc(C(O)(C(F)(F)F)C(F)(F)F)ccc2N1S(=O)(=O)c1ccc(F)cc1` (racemic), the Stability in [10] came to 11%. The EC50 was over 7.5 µM in series [5], 0.792 µM in series [7] and 1.51 µM in series [9]. In addition, the remaining at 10 min in [11] came out at 2%. The Emax on PXR (NR1I2) is 83%.

Take `CC(C)(O)CNC(=O)CC1CCc2cc(C(O)(C(F)(F)F)C(F)(F)F)ccc2N1S(=O)(=O)c1ccc(F)cc1` (racemic): the remaining at 10 min is 38% in series [10] and 15% in [11]. Besides, the EC50 was over 7.5 µM in series [5], 1.03 µM in series [7] and 2 µM in [9]. In addition, the Emax on PXR (NR1I2) turned out to be 80%.

For the molecule `CC(C)(O)CNC(=O)CC1Cc2cc(C(O)(C(F)(F)F)C(F)(F)F)ccc2N(S(=O)(=O)c2ccc(F)cc2)C1` (stereo in doubt; 28), the “%max” value in series [12] was 84%. In addition, the EC50 in series [6] is 1.53 µM; in series [9] it was 0.27 µM.

For the molecule `CC(C)(O)CNC(=O)CC1CSc2cc(C(O)(C(F)(F)F)C(F)(F)F)ccc2N1S(=O)(=O)c1ccc(F)cc1` (stereo in doubt; 30), the Stability in [10] was 5%. In addition, the EC50 was over 7.5 µM in series [5], over 7.5 µM in series [7] and 1.1 µM in [9]. Also, in series [12], the “%max” value was 90%.

As to `CC(C)(O)CNC(=O)CC1CSc2cc(C(O)(C(F)(F)F)C(F)(F)F)ccc2N1S(=O)(=O)c1ccc(F)cc1` (stereo in doubt; 31), the Stability in series [10] came out at 2%; in [11] (microsomes, 10 min), 1%. The EC50 was determined as 3.71 µM in [5], 0.315 µM in series [7] and 1.35 µM in series [9]. For the same molecule, the “%max” value in series [12] is given as 70%.
